Measured values taken from PubChem BioAssay (NCI).
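Following 48 hours of exposure in 96-well plates, responses at five concentrations were used to interpolate endpoints linearly. TGI: total growth inhibition.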

Experiments:
Assay in all cases: growth of human tumour cells (NCI), 48 h
CAKI-1 renal = tested on: CAKI-1 renal
K-562 leukemia = tested on: K-562 leukemia
M19-MEL melanoma = tested on: M19-MEL melanoma
NCI-H460 lung = tested on: NCI-H460 lung
OVCAR-3 ovarian = tested on: OVCAR-3 ovarian
OVCAR-5 ovarian = tested on: OVCAR-5 ovarian
RXF 393 renal = tested on: RXF 393 renal
XF 498 CNS = tested on: XF 498 CNS

SMILES: C#CCOCn1cnc2ncnc(N)c21
- TGI (CAKI-1 renal): > 100 µM
- TGI (K-562 leukemia): > 100 µM
- TGI (M19-MEL melanoma): > 100 µM
- TGI (NCI-H460 lung): > 100 µM
- TGI (OVCAR-3 ovarian): > 100 µM
- TGI (OVCAR-5 ovarian): > 100 µM
- TGI (RXF 393 renal): > 100 µM
- TGI (XF 498 CNS): > 100 µM

SMILES: CC(C)(C)Sc1nnc(SC(C)(C)C)c2c(=O)[nH]nc(SC(C)(C)C)c12
- TGI (CAKI-1 renal): 16.3 µM
- TGI (K-562 leukemia): 26.8 µM
- TGI (M19-MEL melanoma): 14.8 µM
- TGI (NCI-H460 lung): 19.5 µM
- TGI (OVCAR-3 ovarian): 22.6 µM
- TGI (OVCAR-5 ovarian): 16.9 µM
- TGI (RXF 393 renal): 14.2 µM
- TGI (XF 498 CNS): 28.7 µM

SMILES: C/C(=N\NS(=O)(=O)c1ccc([N+](=O)[O-])cc1)c1ccc[n+]([O-])n1
- TGI (CAKI-1 renal): 6.99 µM
- TGI (K-562 leukemia): > 65.4 µM
- TGI (M19-MEL melanoma): 5.05 µM
- TGI (NCI-H460 lung): 2.75 µM
- TGI (OVCAR-3 ovarian): 4.95 µM
- TGI (OVCAR-5 ovarian): 6.1 µM
- TGI (RXF 393 renal): 2.67 µM
- TGI (XF 498 CNS): 7.69 µM
